Experiments:
Type in all cases: functional
Mus musculus [1] = experiment: Hypoglycemic activity in alloxan-induced diabetic albino mouse assessed as decrease in blood glucose level at 1 mmol/kg, po administered 6 days after alloxan injection measured after 1 to 3 hrs by automated glucose oxidase method relative to control
Mus musculus [2] = experiment: Hypoglycemic activity in alloxan-induced diabetic albino mouse assessed as decrease in blood glucose level at 1 mmol/kg, po administered 6 days after alloxan injection measured after 2 to 4 hrs by automated glucose oxidase method relative to control
Mus musculus [3] = experiment: Hypoglycemic activity in alloxan-induced diabetic albino mouse assessed as decrease in blood glucose level at 0.4 mmol/kg, po administered 6 days after alloxan injection measured after 2 to 4 hrs by automated glucose oxidase method relative to control

Cc1cc(C(=O)O)nn1-c1ccc(S(=O)(=O)N2CCC(=O)N(C3CCCCC3)C2=S)cc1
inhibition in vivo at 1000 µmol/kg (Mus musculus [1]): 2%

CCCN1C(=O)CCN(S(=O)(=O)c2ccc(-n3nc(C(=O)O)cc3C)cc2)C1=S
inhibition in vivo at 1000 µmol/kg (Mus musculus [1]): < 1%

Cc1cc(C)n(-c2ccc(S(=O)(=O)N3CC(=O)N(c4ccccc4)C3=S)cc2)n1
inhibition in vivo at 1000 µmol/kg (Mus musculus [2]): 8%

Cc1cc(C(=O)O)nn1-c1ccc(S(=O)(=O)N2CC(=O)N(Cc3ccccc3)C2=S)cc1
inhibition in vivo at 1000 µmol/kg (Mus musculus [2]): < 1%

C=CCNC(=S)NS(=O)(=O)c1ccc(-n2nc(C(=O)O)cc2C)cc1
inhibition in vivo at 400 µmol/kg (Mus musculus [3]): -6%

C=CCN1C(=O)CN(S(=O)(=O)c2ccc(-n3nc(C(=O)O)cc3C)cc2)C1=S
inhibition in vivo at 1000 µmol/kg (Mus musculus [2]): < 1%

CCCNC(=S)NS(=O)(=O)c1ccc(-n2nc(C(=O)O)cc2C)cc1
inhibition in vivo at 400 µmol/kg (Mus musculus [3]): < 1%

C=CCNC(=S)NS(=O)(=O)c1ccc(-n2nc(C)cc2C)cc1
inhibition in vivo at 400 µmol/kg (Mus musculus [3]): -1%

Cc1cc(C)n(-c2ccc(S(=O)(=O)N3CC(=O)N(Cc4ccccc4)C3=S)cc2)n1
inhibition in vivo at 1000 µmol/kg (Mus musculus [2]): 1%

Cc1cc(C(=O)O)nn1-c1ccc(S(=O)(=O)N2CCC(=O)N(Cc3ccccc3)C2=S)cc1
inhibition in vivo at 1000 µmol/kg (Mus musculus [1]): 16%

Cc1cc(C(=O)O)nn1-c1ccc(S(=O)(=O)N2CC(=O)N(C3CCCCC3)C2=S)cc1
inhibition in vivo at 1000 µmol/kg (Mus musculus [2]): 1%

CCNC(=O)NS(=O)(=O)c1ccc(-n2nc(C)cc2C)cc1
inhibition in vivo at 400 µmol/kg (Mus musculus [3]): < 1%

CCCNC(=O)NS(=O)(=O)c1ccc(-n2nc(C)cc2C)cc1
inhibition in vivo at 400 µmol/kg (Mus musculus [3]): < 1%

Cc1cc(C)n(-c2ccc(S(=O)(=O)NC(=O)NNC(=N)N)cc2)n1
inhibition in vivo at 400 µmol/kg (Mus musculus [3]): 3%

CCCCN1C(=O)CN(S(=O)(=O)c2ccc(-n3nc(C(=O)O)cc3C)cc2)C1=S
inhibition in vivo at 1000 µmol/kg (Mus musculus [2]): 1%

CCCN1C(=O)CN(S(=O)(=O)c2ccc(-n3nc(C)cc3C)cc2)C1=S
inhibition in vivo at 1000 µmol/kg (Mus musculus [2]): < 1%

CCCNC(=O)NS(=O)(=O)c1ccc(-n2nc(C(=O)O)cc2C)cc1
inhibition in vivo at 400 µmol/kg (Mus musculus [3]): 1%

CCCCN1C(=O)CN(S(=O)(=O)c2ccc(-n3nc(C)cc3C)cc2)C1=S
inhibition in vivo at 1000 µmol/kg (Mus musculus [2]): 1%

CCCNC(=S)NS(=O)(=O)c1ccc(-n2nc(C)cc2C)cc1
inhibition in vivo at 400 µmol/kg (Mus musculus [3]): < 1%

Cc1cc(C(=O)O)nn1-c1ccc(S(=O)(=O)NC(=S)NC2CCCCC2)cc1
inhibition in vivo at 400 µmol/kg (Mus musculus [3]): 1%

CCCCN1C(=O)CCN(S(=O)(=O)c2ccc(-n3nc(C(=O)O)cc3C)cc2)C1=S
inhibition in vivo at 1000 µmol/kg (Mus musculus [1]): 2%

CCN1C(=O)CCN(S(=O)(=O)c2ccc(-n3nc(C)cc3C)cc2)C1=S
inhibition in vivo at 1000 µmol/kg (Mus musculus [1]): 4%

Cc1cc(C(=O)O)nn1-c1ccc(S(=O)(=O)NC(=S)NCc2ccccc2)cc1
inhibition in vivo at 400 µmol/kg (Mus musculus [3]): < 2%

CCN1C(=O)CN(S(=O)(=O)c2ccc(-n3nc(C)cc3C)cc2)C1=S
inhibition in vivo at 1000 µmol/kg (Mus musculus [2]): < 1%

C=CCN1C(=O)CCN(S(=O)(=O)c2ccc(-n3nc(C(=O)O)cc3C)cc2)C1=S
inhibition in vivo at 1000 µmol/kg (Mus musculus [1]): 0%

CCN1C(=O)CCN(S(=O)(=O)c2ccc(-n3nc(C(=O)O)cc3C)cc2)C1=S
inhibition in vivo at 1000 µmol/kg (Mus musculus [1]): 1%

CCNC(=S)NS(=O)(=O)c1ccc(-n2nc(C)cc2C)cc1
inhibition in vivo at 400 µmol/kg (Mus musculus [3]): 0%

CCCCN1C(=O)CCN(S(=O)(=O)c2ccc(-n3nc(C)cc3C)cc2)C1=S
inhibition in vivo at 1000 µmol/kg (Mus musculus [1]): 1%

Cc1cc(C)n(-c2ccc(S(=O)(=O)NC(=O)NCc3ccccc3)cc2)n1
inhibition in vivo at 400 µmol/kg (Mus musculus [3]): < 1%

CCNC(=O)NS(=O)(=O)c1ccc(-n2nc(C(=O)O)cc2C)cc1
inhibition in vivo at 400 µmol/kg (Mus musculus [3]): 0%

CCCCNC(=S)NS(=O)(=O)c1ccc(-n2nc(C)cc2C)cc1
inhibition in vivo at 400 µmol/kg (Mus musculus [3]): 1%

Cc1cc(C)n(-c2ccc(S(=O)(=O)NC(=S)NC3CCCCC3)cc2)n1
inhibition in vivo at 400 µmol/kg (Mus musculus [3]): < 2%

Cc1cc(C)n(-c2ccc(S(=O)(=O)N3CCC(=O)N(C4CCCCC4)C3=S)cc2)n1
inhibition in vivo at 1000 µmol/kg (Mus musculus [1]): 4%

CCCCNC(=O)NS(=O)(=O)c1ccc(-n2nc(C(=O)O)cc2C)cc1
inhibition in vivo at 400 µmol/kg (Mus musculus [3]): 2%

CCCCNC(=S)NS(=O)(=O)c1ccc(-n2nc(C(=O)O)cc2C)cc1
inhibition in vivo at 400 µmol/kg (Mus musculus [3]): < 1%

Cc1cc(C)n(-c2ccc(S(=O)(=O)N3CC(=O)N(C4CCCCC4)C3=S)cc2)n1
inhibition in vivo at 1000 µmol/kg (Mus musculus [2]): 2%

N=C(N)NC(=N)NCCc1ccccc1 [PHENFORMIN]
inhibition in vivo at 1000 µmol/kg (Mus musculus [2]): 21% | inhibition in vivo at 1000 µmol/kg (Mus musculus [1]): 21%

Cc1cc(C)n(-c2ccc(S(=O)(=O)N3CCC(=O)N(c4ccccc4)C3=S)cc2)n1
inhibition in vivo at 1000 µmol/kg (Mus musculus [1]): < 1%

Cc1cc(C(=O)O)nn1-c1ccc(S(=O)(=O)NC(=S)Nc2ccccc2)cc1
inhibition in vivo at 400 µmol/kg (Mus musculus [3]): 0%

Cc1cc(C)n(-c2ccc(S(=O)(=O)N3CCC(=O)N(Cc4ccccc4)C3=S)cc2)n1
inhibition in vivo at 1000 µmol/kg (Mus musculus [1]): 18%

CCN1C(=O)CN(S(=O)(=O)c2ccc(-n3nc(C(=O)O)cc3C)cc2)C1=S
inhibition in vivo at 1000 µmol/kg (Mus musculus [2]): < 1%

Cc1cc(C)n(-c2ccc(S(=O)(=O)NC(=S)NCc3ccccc3)cc2)n1
inhibition in vivo at 400 µmol/kg (Mus musculus [3]): 0%

CCNC(=S)NS(=O)(=O)c1ccc(-n2nc(C(=O)O)cc2C)cc1
inhibition in vivo at 400 µmol/kg (Mus musculus [3]): -2%

Cc1cc(C(=O)O)nn1-c1ccc(S(=O)(=O)N2CCC(=O)N(c3ccccc3)C2=S)cc1
inhibition in vivo at 1000 µmol/kg (Mus musculus [1]): 1%

CCCN1C(=O)CN(S(=O)(=O)c2ccc(-n3nc(C(=O)O)cc3C)cc2)C1=S
inhibition in vivo at 1000 µmol/kg (Mus musculus [2]): 1%

CCCN1C(=O)CCN(S(=O)(=O)c2ccc(-n3nc(C)cc3C)cc2)C1=S
inhibition in vivo at 1000 µmol/kg (Mus musculus [1]): 1%

Cc1cc(C(=O)O)nn1-c1ccc(S(=O)(=O)NC(=O)NC2CCCCC2)cc1
inhibition in vivo at 400 µmol/kg (Mus musculus [3]): 1%

C=CCN1C(=O)CN(S(=O)(=O)c2ccc(-n3nc(C)cc3C)cc2)C1=S
inhibition in vivo at 1000 µmol/kg (Mus musculus [2]): 4%

Cc1cc(C)n(-c2ccc(S(=O)(=O)NC(=S)Nc3ccccc3)cc2)n1
inhibition in vivo at 400 µmol/kg (Mus musculus [3]): -3%

CCCCNC(=O)NS(=O)(=O)c1ccc(-n2nc(C)cc2C)cc1
inhibition in vivo at 400 µmol/kg (Mus musculus [3]): 2%

Cc1cc(C(=O)O)nn1-c1ccc(S(=O)(=O)NC(=O)NCc2ccccc2)cc1
inhibition in vivo at 400 µmol/kg (Mus musculus [3]): 0%

Cc1cc(C)n(-c2ccc(S(=O)(=O)NC(=O)NC3CCCCC3)cc2)n1
inhibition in vivo at 400 µmol/kg (Mus musculus [3]): 10%
